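Exposure lasted 48 hours, with cells grown in 96-well plates and compounds tested at five concentrations. GI50 = concentration required for 50% inhibition of growth. TGI denotes the concentration required for complete inhibition of growth.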 Where only a bound is given, the exact number is not on record here.

Among the test systems are A498 renal; HOP-92 NSCLC; LOX IMVI melanoma; M14 melanoma; OVCAR-4 ovarian; SK-MEL-2 melanoma; SK-MEL-5 melanoma; SNB-75 CNS; SR leukemia; BT-549 breast; MDA-MB-435.
Common to all, as to assay: NCI anticancer screen, dose series, 48 h

For `C#CCCCCC#CC1CCCC1C1=CC(=O)c2ccccc21` (configuration not stated), the TGI was 28.3 µM in the test on A498 renal; 16.1 µM in the test on HOP-92 NSCLC; 13.9 µM in the test with LOX IMVI melanoma; 17 µM in the test with M14 melanoma; 23.9 µM in the test with OVCAR-4 ovarian; 24.8 µM in the test on SK-MEL-2 melanoma. Also, the TGI in the test on SK-MEL-5 melanoma is 20.2 µM; with SNB-75 CNS, 17.7 µM; in the test with SR leukemia it was greater than 100 µM.
For the molecule `CN(C)CCNc1ccc2nnn3c4ccc(Cl)cc4c(=O)c1c23`, the TGI in the test with A498 renal is 11.3 µM; in the test on BT-549 breast, 34.8 µM; in the test on HOP-92 NSCLC, 14.2 µM; with LOX IMVI melanoma, 9.66 µM; in the test with M14 melanoma, 16.7 µM; in the test on MDA-MB-435, 18.8 µM. The TGI in the test with OVCAR-4 ovarian is 15.9 µM; with SK-MEL-2 melanoma, 16.8 µM; in the test with SK-MEL-5 melanoma it was 10.6 µM; in the test with SNB-75 CNS, 9.78 µM; in the test with SR leukemia, 10.1 µM.
For the molecule `N=C(N)SC1c2ccccc2-c2cc([N+](=O)[O-])ccc21` (configuration not stated), the TGI in the test on A498 renal came to 14.6 µM; with BT-549 breast, 19.3 µM; in the test with HOP-92 NSCLC, 33.5 µM; in the test on LOX IMVI melanoma it was 22.1 µM; in the test on M14 melanoma, 17.7 µM; in the test on MDA-MB-435 it was 4.26 µM. Further, the TGI came out at 17.3 µM in the test with OVCAR-4 ovarian; 13.9 µM with SK-MEL-2 melanoma; 10.6 µM in the test with SK-MEL-5 melanoma; 5.7 µM in the test on SNB-75 CNS; 21.9 µM with SR leukemia.
Consider `O=[N+]([O-])/C=C/c1cccc(F)c1`, for which the TGI in the test with A498 renal is 27.4 µM; in the test on BT-549 breast it was 4.91 µM; in the test on HOP-92 NSCLC, 27.6 µM; in the test on LOX IMVI melanoma, greater than 100 µM; in the test with M14 melanoma, 10.7 µM; in the test with MDA-MB-435, 13.2 µM. Also, the TGI in the test with OVCAR-4 ovarian stood at 16.8 µM; in the test with SK-MEL-2 melanoma, 29.9 µM; in the test with SK-MEL-5 melanoma, 18.6 µM; with SNB-75 CNS it was 28.1 µM.
For `CC1(C)[C@@H]2C[C@H]1C(Cc1ccccc1C[C@H]1c3cc(-c4ccccn4)ncc3[C@H]3C[C@@H]1C3(C)C)c1cc(-c3ccccn3)ncc12` (some centres not stated), the TGI is 4.89 µM in the test with A498 renal; greater than 31.6 µM in the test with BT-549 breast; 1.48 µM in the test with LOX IMVI melanoma; greater than 42.2 µM in the test on MDA-MB-435; greater than 100 µM in the test with OVCAR-4 ovarian; greater than 90.3 µM with SK-MEL-2 melanoma. Moreover, the TGI was 28.1 µM in the test on SK-MEL-5 melanoma, greater than 100 µM with SNB-75 CNS and 1.28 µM in the test on SR leukemia.
As to `NC(Cc1ccc2oc3cc(=O)c4ccccc4c-3nc2c1)C(=O)O` (configuration not stated), the TGI is greater than 84.6 µM in the test with A498 renal; 40.5 µM in the test on BT-549 breast; greater than 100 µM with HOP-92 NSCLC; 44.1 µM in the test on LOX IMVI melanoma; 30.1 µM in the test on M14 melanoma; 12.2 µM with MDA-MB-435. The TGI with OVCAR-4 ovarian is greater than 88.9 µM; in the test on SK-MEL-2 melanoma, 74.3 µM; with SK-MEL-5 melanoma it was 11.5 µM; in the test with SNB-75 CNS it was 29.7 µM; in the test on SR leukemia, 67.6 µM.
For the molecule `Cc1ccc(NCCN(C)CC(C)O)c2c(=O)c3ccc(Cl)cc3sc12` (configuration not stated), the GI50 in the test on A498 renal was 2.31 µM; in the test with BT-549 breast, 5.14 µM; with M14 melanoma, 1.77 µM; with OVCAR-4 ovarian it was 8.47 µM; with SK-MEL-5 melanoma, 1.65 µM; with SNB-75 CNS, 6.65 µM. Besides, the TGI with A498 renal is 8.37 µM; in the test with BT-549 breast it was greater than 100 µM; in the test with M14 melanoma it was 3.38 µM; in the test on OVCAR-4 ovarian, 81.8 µM; with SK-MEL-5 melanoma, 3.01 µM; in the test with SNB-75 CNS, greater than 100 µM.
`CC(=O)O[C@H]1CC[C@]2(C)[C@H]3C(=O)C=C4[C@@H]5C[C@](C)(C(=O)N6CCCNCC6)CC[C@]5(C)CC[C@@]4(C)[C@]3(C)CC[C@H]2C1(C)C`: the GI50 in the test with A498 renal was 1.71 µM; in the test on HOP-92 NSCLC, 1.08 µM; in the test with MDA-MB-435 it was 1.59 µM; in the test with SK-MEL-2 melanoma it was 1.93 µM; with SK-MEL-5 melanoma it was 2.1 µM; in the test on SNB-75 CNS it was 1.34 µM. Also, the TGI in the test with A498 renal is 3.1 µM; with HOP-92 NSCLC, 2.41 µM; in the test with MDA-MB-435, 2.97 µM; in the test on SK-MEL-2 melanoma, 3.7 µM; in the test on SK-MEL-5 melanoma, 4.42 µM; in the test with SNB-75 CNS, 2.64 µM.
Take `C/C=C1/CN2CC[C@@H]3c4ccccc4N4[C@H](C(=O)OC)[C@H]1C[C@H]2[C@]34/C=C/C1=COC[C@@H]2[C@H]1C[C@H]1c3c(c4ccccc4n3C)C[C@@H]2N1C`: the TGI in the test on A498 renal stood at 10 µM; in the test on BT-549 breast it was 8.05 µM; in the test on HOP-92 NSCLC, 9 µM; in the test with LOX IMVI melanoma, 8.74 µM; in the test on M14 melanoma it was 7.9 µM; in the test on MDA-MB-435 it was 7.18 µM. Besides, the TGI turned out to be 6.88 µM in the test on OVCAR-4 ovarian, 8.14 µM in the test with SK-MEL-2 melanoma, 7.48 µM with SK-MEL-5 melanoma and 19.3 µM with SR leukemia.
`CCCCCCc1ccc(O)cc1O`: the TGI with A498 renal is greater than 100 µM; in the test with HOP-92 NSCLC it was 86.9 µM; in the test with LOX IMVI melanoma, greater than 100 µM; with OVCAR-4 ovarian it was greater than 100 µM; with SK-MEL-2 melanoma it was 64 µM; in the test with SK-MEL-5 melanoma, greater than 79.1 µM. This molecule also returned a TGI in the test with SNB-75 CNS greater than 100 µM.
As to `NC(=O)c1nnc2cc(F)c(F)cc2c1N`, the TGI with A498 renal is greater than 100 µM; in the test with BT-549 breast it was 45.6 µM; in the test with LOX IMVI melanoma it was greater than 100 µM; in the test on M14 melanoma it was greater than 100 µM; in the test with MDA-MB-435 it was greater than 100 µM; in the test with OVCAR-4 ovarian, greater than 100 µM. The TGI in the test with SK-MEL-2 melanoma is 38.5 µM; in the test with SK-MEL-5 melanoma, greater than 100 µM; in the test with SNB-75 CNS it was 31.8 µM; in the test with SR leukemia it was greater than 100 µM.
In the case of `CN[C@@H]1[C@H](O)[C@H](NC)[C@H]2O[C@@]3(O)C(=O)C[C@@H](C)O[C@H]3O[C@@H]2[C@H]1O`, the TGI in the test with A498 renal, in the test with BT-549 breast, in the test on HOP-92 NSCLC, in the test on LOX IMVI melanoma, in the test with M14 melanoma and with MDA-MB-435 was greater than 100 µM each time. The TGI in the test on OVCAR-4 ovarian, in the test with SK-MEL-5 melanoma, in the test with SNB-75 CNS and in the test on SR leukemia was greater than 100 µM throughout.
As to `COc1cc2c(cc1O)CCN[C@@]21CS[C@H]2c3c(OC(C)=O)c(C)c4c(c3C(COC1=O)N1C2C2c3c(cc(C)c(OC)c3O)CC([C@@H]1O)N2C)OCO4` (some centres not stated), the TGI with BT-549 breast turned out to be 0.00987 µM; in the test on HOP-92 NSCLC, 0.064 µM; in the test on M14 melanoma, 0.00473 µM; in the test with MDA-MB-435, 0.00604 µM; with SR leukemia, 0.00131 µM. Further, the GI50 in the test on HOP-92 NSCLC was 0.00347 µM; in the test on MDA-MB-435 it was 0.00219 µM.
On to `C=C(/C=C/C=C(/CCC=C(C)C)COC(C)=O)[C@@H]1CC[C@]2([C@H](CCCO)/C(=C(/C)C=O)CC[C@]2(C)O)[C@@H]1O`, for which the TGI with LOX IMVI melanoma was 27.4 µM; in the test on M14 melanoma, 23.5 µM; with SK-MEL-2 melanoma, 33 µM.

(Values after PubChem BioAssay (NCI).)
